# From PubChem BioAssay (NCI)
#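 Step 1: Grow cells in 96-well plates. Step 2: Expose to compound for 48 hours at 5 concentrations. Step 3: Interpolate endpoints linearly; if unreached, use highest concentration. The concentration for full growth arrest is given as TGI.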
# How the values were obtained:
# Assay in all cases: growth of human tumour cells (NCI), 48 h
# [1] = test system: HCT-116 colon
# [2] = test system: SW-620 colon
# [3] = test system: OVCAR-8 ovarian
# [4] = test system: SN12C renal
# [5] = test system: M14 melanoma
# [6] = test system: UACC-62 melanoma
# [7] = test system: KM20L2 colon
# [8] = test system: SK-OV-3 ovarian
# [9] = test system: HCT-15 colon
# [10] = test system: HOP-62 NSCLC
# [11] = test system: CCRF-CEM leukemia
# [12] = test system: A498 renal
# [13] = test system: DMS 273 small cell lung
# [14] = test system: MALME-3M melanoma
# [15] = test system: 786-0 renal
# [16] = test system: ACHN renal
# [17] = test system: KM12 colon
# [18] = test system: XF 498 CNS
# [19] = test system: OVCAR-3 ovarian
# [20] = test system: NCI-H460 lung
# [21] = test system: NCI-H522 lung
# [22] = test system: SR leukemia
# [23] = test system: SF-539 CNS
# [24] = test system: U251 CNS
# [25] = test system: LXFL 529 NSCLC
# [26] = test system: RXF 393 renal
# [27] = test system: UO-31 renal
# [28] = test system: NCI-H226 lung
# [29] = test system: IGROV1 ovarian
# [30] = test system: EKVX NSCLC
# [31] = test system: SNB-78 CNS
# [32] = test system: SNB-19 CNS
# [33] = test system: HOP-92 NSCLC
# [34] = test system: OVCAR-4 ovarian
# [35] = test system: MOLT-4 leukemia
# [36] = test system: TK-10 renal
# [37] = test system: RPMI-8226 leukemia
# [38] = test system: SNB-75 CNS
# [39] = test system: UACC-257 melanoma
# [40] = test system: HCC-2998 colon
# [41] = test system: LOX IMVI melanoma
# [42] = test system: HL-60(TB) leukemia
# [43] = test system: OVCAR-5 ovarian
# [44] = test system: M19-MEL melanoma
# [45] = test system: HT29 colon
# [46] = test system: SF-295 CNS
# [47] = test system: SK-MEL-28 melanoma
# [48] = test system: A549 NSCLC
# [49] = test system: K-562 leukemia
# [50] = test system: COLO 205 colon
# [51] = test system: CAKI-1 renal
# [52] = test system: NCI-H23 lung
# [53] = test system: DLD-1 colon
# [54] = test system: SK-MEL-2 melanoma
# [55] = test system: HOP-18 NSCLC
# [56] = test system: DMS 114 small cell lung
# [57] = test system: SF-268 CNS
# [58] = test system: SK-MEL-5 melanoma
smiles,measurement,setting,value
COc1cc2c(cc1OC)C(Cc1ccc(Oc3cc(CC4c5cc(OC)c(OC)cc5CCN4C)ccc3O)cc1)N(C)CC2 (stereo unspecified),TGI,[1],22 µM
same,TGI,[2],35.5 µM
same,TGI,[3],> 100 µM
same,TGI,[4],> 100 µM
same,TGI,[5],28.7 µM
same,TGI,[6],32.4 µM
same,TGI,[7],34.3 µM
same,TGI,[8],> 100 µM
same,TGI,[9],32 µM
same,TGI,[10],57.4 µM
same,TGI,[11],58.4 µM
same,TGI,[12],49.1 µM
same,TGI,[13],47.8 µM
same,TGI,[14],34.7 µM
same,TGI,[15],27.1 µM
same,TGI,[16],35.2 µM
same,TGI,[17],70.7 µM
same,TGI,[18],34.2 µM
same,TGI,[19],50.1 µM
same,TGI,[20],80.4 µM
same,TGI,[21],25 µM
same,TGI,[22],24.1 µM
same,TGI,[23],30.6 µM
same,TGI,[24],38.2 µM
same,TGI,[25],28.5 µM
same,TGI,[26],29.4 µM
same,TGI,[27],28.3 µM
same,TGI,[28],57.5 µM
same,TGI,[29],56.5 µM
same,TGI,[30],> 100 µM
same,TGI,[31],> 100 µM
same,TGI,[32],> 100 µM
same,TGI,[33],55.9 µM
same,TGI,[34],54.7 µM
same,TGI,[35],41.5 µM
same,TGI,[36],> 100 µM
same,TGI,[37],51.4 µM
same,TGI,[38],31.6 µM
same,TGI,[39],32 µM
same,TGI,[40],28.1 µM
same,TGI,[41],32.6 µM
same,TGI,[42],30.4 µM
same,TGI,[43],> 100 µM
same,TGI,[44],39 µM
same,TGI,[45],28.9 µM
same,TGI,[46],47.1 µM
same,TGI,[47],30.2 µM
same,TGI,[48],> 100 µM
same,TGI,[49],29.3 µM
same,TGI,[50],23.8 µM
same,TGI,[51],73.3 µM
same,TGI,[52],> 100 µM
same,TGI,[53],38.7 µM
same,TGI,[54],31 µM
same,TGI,[55],76.6 µM
same,TGI,[56],30.9 µM
same,TGI,[57],28.7 µM
same,TGI,[58],29.1 µM
O=C(/C=C/c1cccc([N+](=O)[O-])c1)c1cccnc1,TGI,[1],33.3 µM
same,TGI,[2],37.5 µM
same,TGI,[3],> 100 µM
same,TGI,[4],> 62.9 µM
same,TGI,[5],19.6 µM
same,TGI,[6],> 82.4 µM
same,TGI,[7],> 67.8 µM
same,TGI,[8],> 100 µM
same,TGI,[9],> 100 µM
same,TGI,[10],> 100 µM
same,TGI,[11],59.2 µM
same,TGI,[12],> 62.9 µM
same,TGI,[13],69.6 µM
same,TGI,[14],> 100 µM
same,TGI,[15],30.5 µM
same,TGI,[16],> 100 µM
same,TGI,[17],43.3 µM
same,TGI,[18],> 81.1 µM
same,TGI,[19],68.8 µM
same,TGI,[20],> 100 µM
same,TGI,[21],25.3 µM
same,TGI,[22],62.5 µM
same,TGI,[23],48.3 µM
same,TGI,[24],56.1 µM
same,TGI,[25],43 µM
same,TGI,[26],34.4 µM
same,TGI,[27],> 70.7 µM
same,TGI,[28],> 100 µM
same,TGI,[29],70.4 µM
same,TGI,[30],> 100 µM
same,TGI,[31],> 94.2 µM
same,TGI,[32],> 94.7 µM
same,TGI,[33],> 100 µM
same,TGI,[34],> 100 µM
same,TGI,[35],63.5 µM
same,TGI,[36],> 100 µM
same,TGI,[37],44.8 µM
same,TGI,[38],> 91.5 µM
same,TGI,[39],97.7 µM
same,TGI,[40],> 66.1 µM
same,TGI,[41],40.1 µM
same,TGI,[42],48.3 µM
same,TGI,[43],> 100 µM
same,TGI,[44],> 67.9 µM
same,TGI,[45],42.9 µM
same,TGI,[46],> 100 µM
same,TGI,[47],60.8 µM
same,TGI,[48],> 100 µM
same,TGI,[49],> 78.5 µM
same,TGI,[50],> 87.1 µM
same,TGI,[51],> 90.8 µM
same,TGI,[52],44.8 µM
same,TGI,[53],52.2 µM
same,TGI,[54],> 100 µM
same,TGI,[55],> 31.2 µM
same,TGI,[56],52.9 µM
same,TGI,[57],> 86.4 µM
same,TGI,[58],22.3 µM
